The target of series [1] is T1, Transitional endoplasmic reticulum ATPase (Homo sapiens, UniProt P55072).
Description: Inhibition of recombinant full length human p97 (1 to 806 residues) expressed in Escherichia coli Rosetta 2 (DE3) using 100 uM ATP as substrate after 90 mins by luminescence assay
The nature of series [2]: Aqueous solubility of the compound in pH 7.4 buffer by UV/Vis spectroscopic analysis. Type of series: physicochemical.
Series [3] in a line: Half life in human liver microsomes at 10 uM in presence of NADPH/G6PD by LC-MS/MS analysis. Type of series: ADME, microsome. A general note: Microsomes from liver hold many membrane-bound enzymes, among them those of drug oxidation.
Series [4] is described as follows: Half life in mouse liver microsomes at 10 uM in presence of NADPH/G6PD by LC-MS/MS analysis. Type of series: ADME, microsome.
Series [5] has as its target T1, Transitional endoplasmic reticulum ATPase. The experiment in a line: Inhibition of human p97 in human HeLa cells harboring UbG76V-GFP assessed as accumulation of UbG76V after 1 hr by microscopic analysis. Type of series: cell-based.
Series [6] shares this target. Put plainly: Inhibition of human p97 in human HeLa cells harboring UbG76V-GFP assessed as accumulation of UbG76V after 6 hrs by microscopic analysis. Type of series: cell-based.
The subject of series [7] is Panel NCI-60 (60 carcinoma cell lines). The experiment in a line: Growth inhibition of human NCI60 cells after 48 hrs by sulforhodamine B assay. Type of series: functional. In general terms: In SRB staining, fixed cells bind dye roughly in proportion to their protein.
Series [8] addresses T1, Transitional endoplasmic reticulum ATPase. The experiment in a line: Inhibition of recombinant full length human p97 (1 to 806 residues) expressed in Escherichia coli Rosetta 2 (DE3) using 20 uM ATP as substrate after 90 mins by luminescence assay.

In brackets after ≈: the same amount, converted by molar mass.

T1 sequence (P55072 whole entry): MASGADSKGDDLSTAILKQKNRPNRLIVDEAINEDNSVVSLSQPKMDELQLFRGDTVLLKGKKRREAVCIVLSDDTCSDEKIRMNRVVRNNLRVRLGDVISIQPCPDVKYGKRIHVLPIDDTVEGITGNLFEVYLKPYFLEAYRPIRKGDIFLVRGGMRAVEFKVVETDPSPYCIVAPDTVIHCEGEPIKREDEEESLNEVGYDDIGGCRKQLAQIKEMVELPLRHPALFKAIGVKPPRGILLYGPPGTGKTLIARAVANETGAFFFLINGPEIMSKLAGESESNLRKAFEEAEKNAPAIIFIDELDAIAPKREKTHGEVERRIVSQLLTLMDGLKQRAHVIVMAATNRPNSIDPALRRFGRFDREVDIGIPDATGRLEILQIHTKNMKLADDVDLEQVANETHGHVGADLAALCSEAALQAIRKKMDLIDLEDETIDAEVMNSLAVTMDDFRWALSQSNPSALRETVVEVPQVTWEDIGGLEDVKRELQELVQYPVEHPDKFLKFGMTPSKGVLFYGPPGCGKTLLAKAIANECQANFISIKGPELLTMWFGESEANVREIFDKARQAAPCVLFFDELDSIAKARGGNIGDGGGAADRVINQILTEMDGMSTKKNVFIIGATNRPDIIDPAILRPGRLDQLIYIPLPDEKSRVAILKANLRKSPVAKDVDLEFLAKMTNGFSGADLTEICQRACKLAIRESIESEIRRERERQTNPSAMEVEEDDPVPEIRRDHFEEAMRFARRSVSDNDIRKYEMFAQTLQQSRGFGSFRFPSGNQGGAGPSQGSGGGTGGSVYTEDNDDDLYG

As a reminder, the IC50 is the concentration needed to halve the response being measured. For the compound `CC(C)N1CCN(CCCNC2CCN(c3cccc(-c4cc5ccccc5[nH]4)c3)CC2)CC1`, half-maximal inhibition in series [1] (IC50) required 380 nM. The same measure, in the same setting: the same measure for `CC(C)N1CCN(C2(CNC3CCN(c4cccc(-c5cc6cc(F)ccc6[nH]5)c4)CC3)COC2)CC1`: 90 nM. Same read-out and setting: the same measure for `CN1CCN(CCNC2CCN(c3cccc(-c4cc5ccccc5[nH]4)c3)CC2)CC1`: 280 nM; for `c1cc(-c2cc3ccccc3[nH]2)cc(N2CCC(NCCN3CCNCC3)CC2)c1`: 330 nM. The term solubility denotes the dissolved amount per volume that the medium holds. The EC50 is the concentration that produces a half-maximal response. Usually GI50 stands for the concentration at which growth is held to half of that of the control. In series [2], `CC(C)N1CCC(NC2CCN(c3cccc(-c4cc5cc(F)ccc5[nH]4)c3)CC2)CC1` returned a solubility of 380 µM (≈ 165 µg/mL). Further, the values for the t1/2 in series [3] and in series [4] were 9.48 h and 6.43 h, respectively. The EC50 is 19000 nM in series [5] and greater than 40000 nM in series [6]. In series [7], this compound had a 50% growth inhibitory concentration (GI50) of 1580 nM. Besides, in series [1], the IC50 was 50 nM.

Regarding `c1ccc(CNC2CCN(c3cccc(-c4cc5ccccc5[nH]4)c3)CC2)nc1`, in series [1], the concentration for half-maximal inhibition (IC50) turned out to be 1060 nM. As to `CC(C)N1CCN(CCNC2CCN(c3cccc(-c4cc5cc(F)ccc5[nH]4)c3)CC2)CC1`, the 50% inhibitory concentration (IC50) in series [1] turned out to be 70 nM.

`c1ccc(CCNC2CCN(c3cccc(-c4cc5ccccc5[nH]4)c3)CC2)cc1` showed a half-maximal inhibitory concentration (IC50) in series [1] of 2610 nM. As for `Cn1ncnc1CCNC1CCN(c2cccc(-c3cc4ccccc4[nH]3)c2)CC1`, the IC50 in series [8] is 2400 nM; in series [1], 990 nM. `c1ccc(CCNC2CCN(c3cccc(-c4cc5ccccc5[nH]4)c3)CC2)nc1` displayed an IC50 in series [1] of 1050 nM.

Turning to `CC(C)N1CCN(C2(CNC3CCN(c4cccc(-c5cc6cc(F)ccc6[nH]5)c4)CC3)CCC2)CC1`, the IC50 in series [1] was 100 nM. On to `Cc1cc(OCc2nnc(SC3CCCC3)n2-c2cccnc2)ccc1-c1ccc(S(C)(=O)=O)cc1`, for which the solubility in series [2] is 86 µM (≈ 44.8 µg/mL). Also, the t1/2 in series [3] and in series [4] was less than 0.167 h in each case. In series [1], `CC(C)(C)N1CCN(CCNC2CCN(c3cccc(-c4cc5ccccc5[nH]4)c3)CC2)CC1` gave an IC50 of 210 nM. Same read-out and setting: then `CCN1CCN(CCNC2CCN(c3cccc(-c4cc5ccccc5[nH]4)c3)CC2)CC1`, with 200 nM. `CC(C)N1CCN(C(=O)CCNC2CCN(c3cccc(-c4cc5cc(F)ccc5[nH]4)c3)CC2)CC1`: the IC50 in series [1] was 190 nM. On the same count and under the same terms, then `CC(C)N1CCN(C2CCN(c3cccc(-c4cc5cc(F)ccc5[nH]4)c3)CC2)CC1`, with 4760 nM. As for `CN1CCN(C2(CNC3CCN(c4cccc(-c5cc6cc(F)ccc6[nH]5)c4)CC3)CCC2)CC1`, the solubility in series [2] came out at 330 µM (≈ 157 µg/mL). Besides, the t1/2 was 7.92 h in series [3] and 4.62 h in series [4]. Further, the EC50 in series [5] was 15000 nM; in series [6] it was greater than 40000 nM. In addition, in series [7], growth was halved (GI50) at 2000 nM. In addition, the IC50 in series [1] came out at 20 nM. In turn, `CN(C)CCNC1CCN(c2cccc(-c3cc4cc(F)ccc4[nH]3)c2)CC1` showed a concentration for half-maximal inhibition (IC50) in series [1] of 800 nM.

Values taken from ChEMBL document CHEMBL4266055, “Optimization of Phenyl Indole Inhibitors of the AAA+ ATPase p97” (ACS Med Chem Lett, 2018).
